Common to all, as to type: functional
Experiment [1] deals with Helicobacter pylori. In words: Antimicrobial activity against Helicobacter pylori ATCC 43504 at 100 ug/disk after 4 days by disk diffusion method. The conditions noted are these: ATCC 43504, 96 h, read-out: IZ. (In general: In agar diffusion tests the substance spreads into inoculated agar from a disc or well.)
The test system of experiment [2] is Helicobacter pylori. In words: Antimicrobial activity against Helicobacter pylori SS1 at 100 ug/disk after 4 days by disk diffusion method. The conditions noted are these: SS1, 96 h, read-out: IZ.
Experiment [3] concerns Helicobacter pylori. In words: Antimicrobial activity against Clarithromycin-resistant Helicobacter pylori TS648 after 4 days by twofold plate dilution method. Particulars: 96 h.
Experiment [4] relates to Helicobacter pylori. In words: Antimicrobial activity against Helicobacter pylori Sa-3 isolate after 4 days by twofold plate dilution method. The conditions noted are these: 96 h.
Experiment [5] relates to Helicobacter pylori. In words: Antimicrobial activity against Helicobacter pylori SS1 after 4 days by twofold plate dilution method. Particulars: SS1, 96 h.
Experiment [6] relates to Helicobacter pylori. In words: Antimicrobial activity against Helicobacter pylori Sa-1 isolate after 4 days by twofold plate dilution method. Particulars: 96 h.
The test system of experiment [7] is Helicobacter pylori. In words: Antimicrobial activity against Helicobacter pylori ATCC 43504 after 4 days by twofold plate dilution method. Particulars: ATCC 43504, 96 h.
For experiment [8], the system named is Helicobacter pylori. In words: Antimicrobial activity against Helicobacter pylori Sa-2 isolate after 4 days by twofold plate dilution method. The conditions noted are these: 96 h.
Experiment [9] relates to Helicobacter pylori. In words: Antimicrobial activity against Helicobacter pylori TPH30 after 4 days by twofold plate dilution method. The conditions noted are these: 96 h.
Experiment [10] deals with Helicobacter pylori. In words: Antimicrobial activity against Clarithromycin-resistant Helicobacter pylori TS281 after 4 days by twofold plate dilution method. The conditions noted are these: 96 h.
The test system of experiment [11] is Helicobacter pylori. In words: Antimicrobial activity against Helicobacter pylori SS1 at 250 ng/disk after 4 days by disk diffusion method.
For experiment [12], the system named is Helicobacter pylori. In words: Antimicrobial activity against Helicobacter pylori ATCC 43504 at 250 ng/disk after 4 days by disk diffusion method.

From ChEMBL document CHEMBL1158780, “Anti-Helicobacter pylori compounds from Santalum album” (2005) come the findings set out here.

≈ marks a conversion by molar mass, not a printed value.

By MIC is commonly meant the lowest concentration found to suppress growth. Higher therefore signals a need for much substance.

In the case of `C/C(=C/CC[C@@]1(C)[C@H]2CC[C@]1(C)[C@H](O)C2)CO`, the values for the zone of inhibition at 100 µg/disc in experiment [1] and in experiment [2] were 27.1 mm and 11.1 mm, respectively.

On to `C=C(CC/C=C(\C)CO)[C@@H]1CC=C(C)CC1`, for which the MIC in [3] came out at 31.3 µg/mL (≈ 142 µM); in [4], 31.3 µg/mL (≈ 142 µM); in experiment [5] it was 125 µg/mL (≈ 567 µM); in [6] it was 31.3 µg/mL (≈ 142 µM); in experiment [7], 62.5 µg/mL (≈ 284 µM); in [8], 62.5 µg/mL (≈ 284 µM). In addition, the MIC in [9] and in experiment [10] was 62.5 µg/mL (≈ 284 µM) in each case. Also, the zone of inhibition at 100 µg/disc in [1] is 11.9 mm; in experiment [2] it was 10.6 mm.

As for `C/C(=C/CC[C@]1(C)[C@H]2CC[C@]1(C)[C@@H](O)C2)CO`, the results for the zone of inhibition at 100 µg/disc in experiment [1] and in [2] were 28.9 mm and 22.8 mm, respectively.

As to `C=C1[C@H]2CC[C@H](C2)[C@]1(C)CCC=C(CO)CO`, the zone of inhibition at 100 µg/disc in experiment [1] is 21.1 mm; in experiment [2], 10.4 mm.

On to `C/C(=C/CCC(C)(O)c1ccc(C)cc1)CO` (stereo not drawn), for which the zone of inhibition at 100 µg/disc in [1] turned out to be 24.9 mm; in experiment [2] it was 11.2 mm.

With `C=C(CC/C=C(/C)CO)[C@H]1CC[C@@](C)(O)CC1`, the zone of inhibition at 100 µg/disc in experiment [1] was found to be 8.9 mm.

As to `C=C1[C@H]2CC[C@H](C2)[C@@]1(C)CC/C=C(/C)CO`, the MIC in experiment [3] was found to be 7.8 µg/mL (≈ 35.4 µM); in experiment [4] it was 7.8 µg/mL (≈ 35.4 µM); in experiment [5], 31.3 µg/mL (≈ 142 µM); in experiment [6], 7.8 µg/mL (≈ 35.4 µM); in experiment [7] it was 7.8 µg/mL (≈ 35.4 µM); in experiment [8] it was 7.8 µg/mL (≈ 35.4 µM). For the same molecule, the MIC in experiment [9] and in experiment [10] was 7.8 µg/mL (≈ 35.4 µM) throughout. Besides, the zone of inhibition at 100 µg/disc in [1] was determined as 27.2 mm; in experiment [2], 13.5 mm.

In the case of `CC1(CCC=C(CO)CO)C2CC3C(C2)C31C` (stereo not drawn), the figures for the zone of inhibition at 100 µg/disc in experiment [1] and in [2] were 38.7 mm and 25.9 mm, respectively.

Regarding `C/C(=C/CC[C@@]1(C)C2CC[C@@](C)(C2)[C@@H]1O)CO`, the zone of inhibition at 100 µg/disc came to 27.6 mm in experiment [1] and 15.5 mm in experiment [2].

As for `C/C(=C/CC[C@@]1(C)[C@@H]2CC[C@@H](C2)[C@@]1(C)O)CO`, the zone of inhibition at 100 µg/disc turned out to be 20.1 mm in [1] and 16.8 mm in [2].

On to `C/C(=C/CC[C@]1(C)C2C[C@@H]3[C@H](C2)C31C)CO`, for which the MIC was 7.8 µg/mL (≈ 35.4 µM) in [3]; 7.8 µg/mL (≈ 35.4 µM) in experiment [4]; 31.3 µg/mL (≈ 142 µM) in experiment [5]; 7.8 µg/mL (≈ 35.4 µM) in experiment [6]; 15.6 µg/mL (≈ 70.8 µM) in experiment [7]; 31.3 µg/mL (≈ 142 µM) in [8]. For the same molecule, the MIC in experiment [9] and in [10] was 15.6 µg/mL (≈ 70.8 µM) each time. Moreover, the zone of inhibition at 100 µg/disc worked out at 21.6 mm in experiment [1] and 11.5 mm in experiment [2].

As to `CC1(C)S[C@@H]2[C@H](NC(=O)[C@H](N)c3ccc(O)cc3)C(=O)N2[C@H]1C(=O)O` [AMOXICILLIN], the MIC in experiment [3] is 0.13 µg/mL (≈ 0.356 µM); in experiment [4] it was 0.25 µg/mL (≈ 0.684 µM); in experiment [5] it was 0.25 µg/mL (≈ 0.684 µM); in experiment [6], 0.06 µg/mL (≈ 0.164 µM); in [7] it was 0.06 µg/mL (≈ 0.164 µM); in experiment [8] it was 0.06 µg/mL (≈ 0.164 µM). Further, the values for the MIC in [9] and in [10] were 0.25 µg/mL (≈ 0.684 µM) and 0.5 µg/mL (≈ 1.37 µM), respectively. For the same molecule, the “inhibition zone (IZ)” value in experiment [11] amounted to 20.3 mm; in [12], 35.3 mm.

For the molecule `CC[C@H]1OC(=O)[C@H](C)[C@@H](O[C@H]2C[C@@](C)(OC)[C@@H](O)[C@H](C)O2)[C@H](C)[C@@H](O[C@@H]2O[C@H](C)C[C@H](N(C)C)[C@H]2O)[C@](C)(OC)C[C@@H](C)C(=O)[C@H](C)[C@@H](O)[C@]1(C)O` [CLARITHROMYCIN], the MIC in [3] is 2 µg/mL (≈ 2.67 µM); in experiment [4] it was not above 0.06 µg/mL; in experiment [5] it was not above 0.06 µg/mL; in experiment [6], not above 0.06 µg/mL; in [7], not above 0.06 µg/mL; in experiment [8], not above 0.06 µg/mL. For the same molecule, the MIC is not above 0.06 µg/mL in [9] and 32 µg/mL (≈ 42.8 µM) in [10].
